Structures can show the parent of a compound that is named as a salt.
Legend:
cotton [1] = assay: Pouch assay of cotton after PESA salt and clothianidin seed treatments; type: in vivo; conditions: seed treatment; for shoot length of cotton: control 3.7; for root length of cotton: control 9.6
Experimental: (§1) Seed was sieved with a screen of hole size appropriate to remove broken seeds and small trash. Cracked or otherwise damaged seeds were removed. The seed was well mixed, and 50 g samples were weighed into small plastic trays. Seed treatment slurries were made by adding measured amounts of the active ingredients to sufficient water to bring them up to a standard volume, typically 2 ml. A fungicide (Maxim XL; Syngenta Agricultural Products, Greensboro, N.C.), a polymeric binder (CF-Clear; Becker-Underwood, Ames, Iowa), and a colorant (Color Coat Red; Becker-Underwood, Ames, Iowa) were also included in the slurry at label rates. A small aliquot of this slurry was applied to the seed using the Hege 11 coater (Wintersteiger, Salt Lake City, Utah) with a six-inch bowl. The slurry was deposited drop-wise on the spinning disk atomizer using a syringe.
(§2) Seeds were placed in germination pouches consisting of germination paper hydrated with sterile water that was an insert in a gas-permeable 16×14 cm plastic pouch (CYG Pouch; Mega International, St. Paul, Minn.). In these examples, in pouch solution evaluation, clothianidin and PESA sodium salt were added to the sterile water in the pouch. Alternatively, imidacloprid or dinotefuran and PESA sodium salt were added to the sterile water in the pouch. The pouches were arranged in a completely randomized block design in growth racks and placed in 19-liter polycarbonate food storage containers (Rubbermaid Commercial Products, Winchester, Va.). The sealed containers were held in an upright growth cabinet maintained at 25 C with a 12 hour light: 12 hour dark photoperiod. After 6 days, the containers were removed from the growth cabinet, and the lengths of the roots and shoot were measured.

cotton [2] = assay: Continuous exposure pouch study, PESA salt and imidacloprid on cotton; type: in vivo; conditions: for shoot length of cotton / root length of cotton: in pouch; for shoot length of cotton: control 6.2; for root length of cotton: control 13.3
Experimental: as §2, with “measured. […] Root lengths of the control and combination treatment of imidacloprid with 100 mg/liter PESA salt were similar.” for “measured.”

rice = assay: Pouch study of rice, imidacloprid seed treatment with PESA salt solution in pouch; type: in vivo
Experimental: as §1, §2
Root lengths of the control and combination treatment of 200 grams imidacloprid/100 pounds of seed with 50 mg/liter PESA salt were similar.

soybean = assay: Field study, seed treatment of soybean; type: in vivo; conditions: for average plant height of soybean: 66 days after planting, control 23.8
Experimental: (§3) For the field studies, the seed was treated with a seed treatment formulation containing clothianidin. The rate of clothianidin was dependent on the crop species. The seed treatment formulations were amended with the appropriate concentrations of either PESA or the sodium salt of PESA. Crops were planted and grown under standard agricultural practices, and evaluated at the times indicated. The sodium salt of PESA was prepared as described above, and was used in seed treatment either alone or in the presence of clothianidin. Soybean seed was treated with 0 or 50 grams of clothianidin/100 kg (220 pound) of seed and with 0, 22, 55, or 137.5 grams PESA salt/100 kg seed.

sorghum = assay: Field study, seed treatment of sorghum; type: in vivo; conditions: for root dry weight of a sample of 10 sorghum plants: 73 days after planting, control 148.5
Experimental: as §3, with “Sorghum” for “Soybean”, “200” for “50”

canola = assay: Field study, seed treatment of canola; type: in vivo, Brassica napus; conditions: for vigor rating (1 = low and 5 = high) of canola plants: 19 days after planting, control 3.8
Experimental: as §3, with “Canola (Brassica napus)” for “Soybean”, “400” for “50”

maize = assay: Field study, seed treatment of maize; type: in vivo, Zea mays; conditions: 27 days after planting, control 3.6
Experimental: For the field studies, the seed was treated with a seed treatment formulation containing clothianidin. The rate of clothianidin was dependent on the crop species. The seed treatment formulations were amended with the appropriate concentrations of either PESA or the sodium salt of PESA. Crops were planted and grown under standard agricultural practices, and evaluated at the times indicated. The PESA or the sodium salt of PESA was prepared as described above, and was used in seed treatment either alone or in the presence of clothianidin. Maize (Zea mays) seed was treated with 0 or 0.25 milligrams of clothianidin/seed and with 0, 22, 55, or 137.5 grams PESA salt/100 kg seed.

[3] = PESA salt 10 g/100 pounds of seed alone
[4] = PESA salt 25 g/100 pounds of seed alone
[5] = sodium salt of PESA 22 g/100 kg seed alone
[6] = sodium salt of PESA 55 g/100 kg seed alone
[7] = sodium salt of PESA 137.5 g/100 kg seed alone

O=C(O)CCC(=O)NCCc1ccccc1 [PESA salt]
effect on cotton shoot length (cotton [1]; Table 2): increased cotton shoot length
safening of cotton (cotton [1]; conclusion from Table 1): safened cotton against clothianidin-induced root growth inhibition
shoot length of cotton (cotton [1]; [3]): 4.3 cm
root length of cotton (cotton [1]; [3]): 8.8 cm
shoot length of cotton (cotton [1]; [4]): 4.3 cm
root length of cotton (cotton [1]; [4]): 10.6 cm
safening of cotton (cotton [2]; conclusion from Table 5): safened cotton against imidacloprid-induced root growth inhibition
shoot length of cotton (cotton [2]; PESA salt 10 mg/liter alone): 6.2 cm
root length of cotton (cotton [2]; PESA salt 10 mg/liter alone): 14.6 cm
shoot length of cotton (cotton [2]; PESA salt 30 mg/liter alone): 6.0 cm
root length of cotton (cotton [2]; PESA salt 30 mg/liter alone): 16.9 cm
shoot length of cotton (cotton [2]; PESA salt 100 mg/liter alone): 6.0 cm
root length of cotton (cotton [2]; PESA salt 100 mg/liter alone): 16.5 cm
shoot length of cotton (cotton [2]; PESA salt 300 mg/liter alone): 5.7 cm
root length of cotton (cotton [2]; PESA salt 300 mg/liter alone): 11.9 cm
shoot length of rice (rice; PESA salt 50 mg/liter in pouch alone, control 3.3): 3.6 cm
root length of rice (rice; PESA salt 50 mg/liter in pouch alone, control 10.7): 12.0 cm
safening of rice (rice; conclusion from Table 7): safened, rice against imidacloprid-induced root growth inhibition
average plant height of soybean (soybean; [5]): 23.8 inches
average plant height of soybean (soybean; [6]): 23.5 inches
average plant height of soybean (soybean; [7]): 23.2 inches
safening of soybean (soybean; conclusion from Table 9): safened soybean against clothianidin-induced root growth inhibition
root dry weight of a sample of 10 sorghum plants (sorghum; [5]): 183.5 grams
root dry weight of a sample of 10 sorghum plants (sorghum; [6]): 146.5 grams
root dry weight of a sample of 10 sorghum plants (sorghum; [7]): 141.6 grams
safening of sorghum (sorghum; conclusion from Table 10): safened sorghum against clothianidin-induced root growth inhibition
vigor rating (1 = low and 5 = high) of canola plants (canola; [5]): 3.8
vigor rating (1 = low and 5 = high) of canola plants (canola; [6]): 4
vigor rating (1 = low and 5 = high) of canola plants (canola; [7]): 4
safening of canola (canola; conclusion from Table 11): safened canola against clothianidin-induced vigor reduction
vigor rating of maize plants, Vigor (1-5) (maize; PESA sodium salt 22 g/100 kg seed alone): 3.8
vigor rating of maize plants, Vigor (1-5) (maize; PESA sodium salt 55 g/100 kg seed alone): 3.5
vigor rating of maize plants, Vigor (1-5) (maize; PESA sodium salt 137.5 g/100 kg seed alone): 3.4

Reference: US8513161B2, “Enhancement of plant growth” (Valent Biosciences Corporation, priority 2007, dated 2013)
